{"source": "patent US8673945B2", "about": "“Solid pharmaceutical composition comprising amlodipine and losartan” (Hanmi Science Co., Ltd, priority 2009, dated 2014)", "origin": "cited, not measured here", "data": [{"smiles": "CCCCc1nc(Cl)c(CO)n1Cc1ccc(-c2ccccc2-c2nn[nH]n2)cc1", "note": "[losartan, 2-butyl-4-chloro-1-[[2′-(1H-tetrazol-5-yl)[1,1′-biphenyl]-4-yl]methyl]-1H-imidazol-5-methanol]", "values": [{"measurement": "reduction of Cmax of losartan after food ingestion", "value": "about 10%"}]}]}
